Reference: patent US11702422B2, “Imidazopyridazines as modulators of IL-17” (Janssen Pharmaceutica NV, priority 2020, dated 2023)

Tests used:
[1] = molecular target: IL-17A(FLAG-Tagged): IL-17RA(His-Tagged) (Homo sapiens, UniProt Q16552, K93Q); assay: IL-17A(FLAG-Tagged): IL-17RA(His-Tagged) Binding Disruption Eu-HTRF Assay; details: IL-17A/IL-17RA binding disruption, simple average if tested more than once
How it was run: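 IC50 comes from a one-site competition fit of the HTRF 665/620 nm ratio. Compound dilutions (2-fold, 22 points) were held 1 h rt with FLAG-tagged IL-17A dimer, then His-tagged IL-17RA plus Eu-cryptate anti-FLAG and D2 anti-His antibodies were added for 2 h rt.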

[2] = tested on: IL-17A-induced G-CSF production in human normal keratinocyte (NHK); assay: NHK Assay: IL-17A-induced G-CSF production in human normal keratinocytes; type: cell-based; details: 24 h, adult normal human keratinocytes, IL-17A 5 ng/mL, simple average if tested more than once
How it was run: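 HTRF read-out of supernatant G-CSF, quantified from a standard curve, gave IC50 values. Adult keratinocytes, 3000-4000 cells/well, received human IL-17A (5 ng/mL final) pre-mixed 1 h at rt with compound, in 5% FBS and 0.2% DMSO, 24 h at 37° C.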

Sequence of UniProt Q16552 (Q16552 with tags, fused parts or gaps K93Q): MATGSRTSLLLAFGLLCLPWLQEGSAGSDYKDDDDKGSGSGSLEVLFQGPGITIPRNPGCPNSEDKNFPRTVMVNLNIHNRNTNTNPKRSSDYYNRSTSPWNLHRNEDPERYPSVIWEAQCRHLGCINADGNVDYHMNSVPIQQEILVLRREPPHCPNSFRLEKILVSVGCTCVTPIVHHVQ

Compound	IC50 [1]	IC50 ([2]; Homo sapiens, Keratinocyte)	IC50 [2]
C[C@H](CC(=O)N[C@@H](c1cnn2cc([C@@H](NC(=O)[C@@H]3C[C@H]3C(F)(F)F)C3CCC(F)(F)CC3)nc2c1)C1CC1)C(F)(F)F (relative stereo) [Example 241, (trans-1R*,2R*)—N—((S)-(7-((R)-Cyclopropyl((R*)-4,4,4-trifluoro-3-methylbutanamido)methyl)imidazo[1,2-b]pyridazin-2-yl)(4,4-difluorocyclohexyl)methyl)-2-(trifluoromethyl)cyclopropane-1-carboxamide]	3.4 µM	> 20 µM	
O=C(CCC(F)(F)F)N[C@@H](c1cnn2cc([C@@H](NC(=O)c3cccc(F)c3)C3CCC(F)(F)CC3)nc2c1)C1CC1 [Example 173, N—((S)-(7-((R)-Cyclopropyl(4,4,4-trifluorobutanamido)methyl)imidazo[1,2-b]pyridazin-2-yl)(4,4-difluorocyclohexyl)methyl)-3-fluorobenzamide]	0.06 µM	0.34 µM	
O=C(CCC(F)(F)F)N[C@@H](c1cnn2cc([C@@H](NC(=O)c3ccnn3C(CF)CF)C3CCC(F)(F)CC3)nc2c1)C1CC1 [Example 69, N—((S)-(7-((R)-Cyclopropyl(4,4,4-trifluorobutanamido)methyl)imidazo[1,2-b]pyridazin-2-yl)(4,4-difluorocyclohexyl)methyl)-1-(1,3-difluoropropan-2-yl)-1H-pyrazole-5-carboxamide]	0.11 µM	0.055 µM	
CC(C)Oc1cc(C(=O)N[C@H](c2cn3ncc([C@H](NC(=O)CCC(F)(F)F)C4CC4)cc3n2)C2CCC(F)(F)CC2)ccn1 [Example 175, N—((S)-(7-((R)-Cyclopropyl(4,4,4-trifluorobutanamido)methyl)imidazo[1,2-b]pyridazin-2-yl)(4,4-difluorocyclohexyl)methyl)-2-isopropoxyisonicotinamide]	0.08 µM	0.4 µM	
CC(C)n1nccc1C(=O)N[C@H](c1cn2ncc(C(NC(=O)CCC(F)F)C3CC3)cc2n1)C1CCC(F)(F)CC1 (single isomer, unassigned) [Example 135, N-((1S)-(7-((R*)-Cyclopropyl(4,4-difluorobutanamido)methyl)imidazo[1,2-b]pyridazin-2-yl)(4,4-difluorocyclohexyl)methyl)-1-isopropyl-1H-pyrazole-5-carboxamide]	0.11 µM	0.23 µM	
O=C(CCC(F)(F)F)N[C@@H](c1cnn2cc([C@@H](NC(=O)c3cnn(CCCF)n3)C3CCC(F)(F)CC3)nc2c1)C1CC1 [Example 113, N—((S)-(7-((R)-Cyclopropyl(4,4,4-trifluorobutanamido)methyl)imidazo[1,2-b]pyridazin-2-yl)(4,4-difluorocyclohexyl)methyl)-2-(3-fluoropropyl)-2H-1,2,3-triazole-4-carboxamide]	0.43 µM	0.4 µM	
O=C(CC1CC(F)(F)C1)NC(c1cnn2cc([C@@H](NC(=O)c3cnn(CC(F)(F)F)n3)C3CCC(F)(F)CC3)nc2c1)C1CC1 (stereo in doubt) [Example 28, N—((S)-(7-((R*)-Cyclopropyl(2-(3,3-difluorocyclobutyl)acetamido)methyl)imidazo[1,2-b]pyridazin-2-yl)(4,4-difluorocyclohexyl)methyl)-2-(2,2,2-trifluoroethyl)-2H-1,2,3-triazole-4-carboxamide]	0.09 µM	0.39 µM	
O=C(CCC(F)(F)F)N[C@@H](c1cnn2cc([C@@H](NC(=O)c3cncc(C(F)(F)F)c3)C3CCC(F)(F)CC3)nc2c1)C1CC1 [Example 178, N—((S)-(7-((R)-Cyclopropyl(4,4,4-trifluorobutanamido)methyl)imidazo[1,2-b]pyridazin-2-yl)(4,4-difluorocyclohexyl)methyl)-5-(trifluoromethyl)nicotinamide]	0.067 µM	0.45 µM	

The next lines start with results.

IC50 [1]	Compound	IC50 ([2]; Homo sapiens, Keratinocyte)	IC50 [2]
0.087 µM	Cc1nonc1C(=O)N[C@H](c1cn2ncc([C@H](NC(=O)C[C@H]3C[C@@H](F)C3)C3CC3)cc2n1)C1CCC(F)(F)CC1 (single isomer, unassigned) [Example 267]	0.35 µM	
0.71 µM	Cc1nonc1C(=O)N[C@H](c1cn2ncc(C(CC#N)NC(=O)CC3CC(F)(F)C3)cc2n1)C1CCC(F)(F)CC1 (single isomer, unassigned) [Example 446, N—((S)-(7-((R*)-2-Cyano-1-(2-(3,3-difluorocyclobutyl)acetamido)ethyl)imidazo[1,2-b]pyridazin-2-yl)(4,4-difluorocyclohexyl)methyl)-4-methyl-1,2,5-oxadiazole-3-carboxamide]		8.8 µM
0.11 µM	CC(CC(=O)N[C@@H](c1cnn2cc([C@@H](NC(=O)c3nonc3C3CC3)C3CCC(F)(F)CC3)nc2c1)C1CC1)C(F)(F)F (single isomer, unassigned) [Example 300, 4-Cyclopropyl-N—((S)-(7-((R)-cyclopropyl((R*)-4,4,4-trifluoro-3-methylbutanamido)methyl)imidazo[1,2-b]pyridazin-2-yl)(4,4-difluorocyclohexyl)methyl)-1,2,5-oxadiazole-3-carboxamide]		0.32 µM
0.64 µM	O=C(CCC(F)(F)F)N[C@@H](c1cnn2cc([C@@H](NC(=O)[C@H]3C[C@@H]3CF)C3CCC(F)(F)CC3)nc2c1)C1CC1 (relative stereo) [Example 363, (1S*,2S*)—N—((S)-(7-((R*)-Cyclopropyl(4,4,4-trifluorobutanamido)methyl)imidazo[1,2-b]pyridazin-2-yl)(4,4-difluorocyclohexyl)methyl)-2-(fluoromethyl)cyclopropane-1-carboxamide]	1.1 µM	
0.086 µM	O=C(CC1CC(F)(F)C1)N[C@@H](c1cnn2cc([C@@H](NC(=O)c3conc3COC(F)F)C3CCC(F)(F)CC3)nc2c1)C1CC1 [Example 294, N—((S)-(7-((R)-Cyclopropyl(2-(3,3-difluorocyclobutyl)acetamido)methyl)imidazo[1,2-b]pyridazin-2-yl)(4,4-difluorocyclohexyl)methyl)-3-((difluoromethoxy)methyl)isoxazole-4-carboxamide]	0.038 µM	
7.8 µM	O=C(CCC(F)(F)F)N[C@@H](c1cnn2cc([C@@H](NC(=O)c3cccnn3)C3CCC(F)(F)CC3)nc2c1)C1CC1 [Example 458, N—((S)-(7-((R)-Cyclopropyl(4,4,4-trifluorobutanamido)methyl)imidazo[1,2-b]pyridazin-2-yl)(4,4-difluorocyclohexyl)methyl)pyridazine-3-carboxamide]	> 20 µM	
0.47 µM	Cc1nonc1C(=O)N[C@H](c1cn2ncc([C@H](NC(=O)C(C)CC(F)(F)F)C3CC3)cc2n1)C1CCC(F)(F)CC1 (single isomer, unassigned) [Example 347, N—((S)-(7-((R)-Cyclopropyl((S*)-4,4,4-trifluoro-2-methylbutanamido)methyl)imidazo[1,2-b]pyridazin-2-yl)(4,4-difluorocyclohexyl)methyl)-4-methyl-1,2,5-oxadiazole-3-carboxamide]		1.6 µM
0.31 µM	Cc1nonc1C(=O)N[C@H](c1cn2ncc([C@H](NC(=O)C(F)C3CC3)C3CC3)cc2n1)C1CCC(F)(F)CC1 (single isomer, unassigned) [Example 331, N—((S)-(7-((R)-Cyclopropyl((R*)-2-cyclopropyl-2-fluoroacetamido)methyl)imidazo[1,2-b]pyridazin-2-yl)(4,4-difluorocyclohexyl)methyl)-4-methyl-1,2,5-oxadiazole-3-carboxamide]		1.5 µM
0.78 µM	O=C(CCC(F)(F)F)N[C@@H](c1cnn2cc([C@@H](NC(=O)c3ccccn3)C3CCC(F)(F)CC3)nc2c1)C1CC1 [Example 456, N—((S)-(7-((R)-Cyclopropyl(4,4,4-trifluorobutanamido)methyl)imidazo[1,2-b]pyridazin-2-yl)(4,4-difluorocyclohexyl)methyl)picolinamide]	> 20 µM	
1.5 µM	CC(C)n1nccc1C(=O)N[C@H](c1cn2ncc(C(CO)NC(=O)CC3CC(F)(F)C3)cc2n1)C1CCC(F)(F)CC1 (single isomer, unassigned) [Example 532, N—((S)-(7-((R*)-1-(2-(3,3-Difluorocyclobutyl)acetamido)-2-hydroxyethyl)imidazo[1,2-b]pyridazin-2-yl)(4,4-difluorocyclohexyl)methyl)-1-isopropyl-1H-pyrazole-5-carboxamide]		2.8 µM
3.8 µM	Cc1nonc1C(=O)N[C@H](c1cn2ncc(C(NC(=O)C(F)(F)CC3CC3)C3(C#N)CC3)cc2n1)C1CCC(F)(F)CC1 (single isomer, unassigned) [Example 435, N—((S)-(7-((R*)-(1-Cyanocyclopropyl)(3-cyclopropyl-2,2-difluoropropanamido)methyl)imidazo[1,2-b]pyridazin-2-yl)(4,4-difluorocyclohexyl)methyl)-4-methyl-1,2,5-oxadiazole-3-carboxamide]	> 20 µM	
0.42 µM	Cc1nonc1C(=O)N[C@H](c1cn2ncc([C@H](NC(=O)C(F)C3CCC3)C3CC3)cc2n1)C1CCC(F)(F)CC1 (single isomer, unassigned) [Example 349, N—((S)-(7-((R)-((S*)-2-Cyclobutyl-2-fluoroacetamido)(cyclopropyl)methyl)imidazo[1,2-b]pyridazin-2-yl)(4,4-difluorocyclohexyl)methyl)-4-methyl-1,2,5-oxadiazole-3-carboxamide]		1.7 µM
